Experimental data reported in the NIST ThermoML archive (doi:10.1021/je034012m).
Several values for one entry are separate records, joined by “and”; a condition that tells them apart may be missing. Identical values can stand only once.

Settings: Crystal

O.O.[Ba+2].[Cl-].[Cl-] [barium chloride dihydrate]
Settings	vapor or sublimation pressure
295.45 K	0.5 kPa
295.55 K	0.39 kPa and 0.53 kPa
295.65 K	0.56 kPa
297.35 K	0.31 kPa
304.25 K	1.22 kPa
304.55 K	0.9 kPa
306.35 K	1.01 kPa
306.95 K	1.31 kPa
307.25 K	1.39 kPa
307.35 K	1.04 kPa
308.25 K	1.19 kPa
309.45 K	1.3 kPa
319.05 K	2.5 kPa
321.15 K	2.66 kPa
323.15 K	3.88 kPa
323.45 K	3.85 kPa
323.75 K	3.97 kPa
324.15 K	4.05 kPa
324.85 K	5.15 kPa
325.55 K	5.1 kPa
336.95 K	9.4 kPa
343.65 K	13.59 kPa

O.[Ba+2].[Cl-].[Cl-] [barium chloride monohydrate]
Settings	vapor or sublimation pressure
290.45 K	0.086 kPa
304.15 K	0.173 kPa
304.45 K	0.146 kPa
305.25 K	0.138 kPa
307.25 K	0.133 kPa
307.45 K	0.231 kPa
307.95 K	0.17 kPa
308.05 K	0.142 kPa
308.45 K	0.248 kPa and 0.272 kPa
308.65 K	0.241 kPa
308.95 K	0.105 kPa
309.05 K	0.195 kPa
309.25 K	0.344 kPa
310.15 K	0.199 kPa
311.45 K	0.16 kPa
312.95 K	0.24 kPa
313.45 K	0.274 kPa
315.35 K	0.35 kPa
315.95 K	0.4 kPa
316.15 K	0.76 kPa
318.45 K	0.312 kPa
322.85 K	0.6 kPa
323.55 K	0.6 kPa
334.45 K	1.04 kPa and 1.1 kPa
334.85 K	1.01 kPa
334.95 K	0.96 kPa
335.45 K	1.26 kPa
337.45 K	1.51 kPa
337.65 K	1.47 kPa
344.95 K	2.06 kPa
345.25 K	2.05 kPa
